| SMILES | melting point [°C] |
| --- | --- |
| CSc1ccc(Cn2c(C)nc(Cl)c2/C=C/C(=O)NS(=O)(=O)/C=C/c2ccccc2)c(Cl)c1 [Example 27, (E)-3-(4-chloro-1-(2-chloro-4-(methylthio)benzyl)-2-methylimidazol-5-yl)-N-(((E)-2-phenylethenyl)sulfonyl)-2-propenamide] | 237 to 238 |
| CCC/C=C/S(=O)(=O)NC(=O)/C=C/c1c(Cl)nc(C)n1Cc1ccc(/C=C/c2ccccc2)cc1Cl [Example 42, (E)-3-(4-chloro-1-(2-chloro-4-((E)-2-phenylethenyl)benzyl)-2-methylimidazol-5-yl)-N-((E)-1-penten-1-ylsulfonyl)-2-propenamide] | 226 to 228 |
| Cc1nc(Cl)c(/C=C/C(=O)NS(=O)(=O)/C=C/c2ccccc2)n1Cc1ccc(C(F)(F)F)cc1Cl [Example 29, (E)-3-(4-chloro-1-(2-chloro-4-(trifluoromethyl)benzyl)-2-methylimidazol-5-yl)-N-(((E)-2-phenylethenyl)sulfonyl)-2-propenamide] | 261 to 263 |
| Cc1nc(Cl)c(/C=C/C(=O)NS(=O)(=O)/C=C/c2ccccc2)n1Cc1ccc(OCC2CCCCC2)cc1Cl [Example 23, (2E)-3-(4-chloro-1-(2-chloro-4-((cyclohexyl)methyloxy)benzyl)-2-methylimidazol-5-yl)-N-(((E)-2-phenylethenyl)sulfonyl)-2-propenamide] | 210 to 212 |
| Cc1nc(Cl)c(/C=C/C(=O)NS(=O)(=O)c2ccccc2)n1Cc1ccc(-c2ccccc2)cc1Cl [Example 10, (E)-N-benzenesulfonyl-3-[4-chloro-1-(2-chloro-4-phenylbenzyl)-2-methylimidazol-5-yl]-2-propenamide] | 245 to 247 |
| Cc1nc(C)n(Cc2ccc(Br)cc2Cl)c1/C=C/C(=O)NS(=O)(=O)/C=C/c1ccccc1 [Example 64, (E)-3-(1-(4-bromo-2-chlorobenzyl)-2,4-dimethylimidazol-5-yl)-N-((E)-2-phenylethenesulfonyl)-2-propenamide] | 251 to 253 |
| CCCCCS(=O)(=O)NC(=O)/C=C/c1c(Cl)nc(CC)n1Cc1ccc(C#Cc2ccccc2)cc1Cl [Example 57, (E)-3-(4-chloro-1-(2-chloro-4-(phenylethynyl)benzyl)-2-ethylimidazol-5-yl)-N-(1-pentanesulfonyl)-2-propenamide] | 161 to 163 |
| CCCCCS(=O)(=O)NC(=O)/C=C/c1c(Cl)nc(C)n1Cc1ccc(-c2ccccc2)cc1Cl [Example 9, (E)-3-[4-chloro-1-(2-chloro-4-phenylbenzyl)-2-methylimidazol-5-yl]-N-(1-pentanesulfonyl)-2-propenamide] | 203 to 204 |
| Cc1nc(Cl)c(/C=C/C(=O)NS(=O)(=O)c2ccc(Br)s2)n1Cc1ccc(-c2ccccc2)cc1Cl [Example 14, (E)-N-((5-bromo-2-thienyl)sulfonyl)-3-(4-chloro-1-(2-chloro-4-phenylbenzyl)-2-methylimidazol-5-yl)-2-propenamide] | 234 to 235 |
| CCCCCOc1ccc(Cn2c(C)nc(Br)c2/C=C/C(=O)NS(=O)(=O)/C=C/c2ccccc2)c(Cl)c1 [Example 65, (E)-3-(4-bromo-1-(2-chloro-4-(1-pentyloxy)benzyl)-2-methylimidazol-5-yl)-N-((E)-2-phenylethenesulfonyl)-2-propenamide] | 208 to 209 |
| CCCCS(=O)(=O)NC(=O)/C=C/c1c(Cl)nc(CC)n1Cc1ccc(C#Cc2ccccc2)cc1Cl [Example 56, (E)-N-(1-butanesulfonyl)-3-(4-chloro-1-(2-chloro-4-(phenylethynyl)benzyl)-2-ethylimidazol-5-yl)-2-propenamide] | 165 to 167 |
| CCc1nc(Cl)c(/C=C/C(=O)NS(=O)(=O)/C=C/c2ccccc2)n1Cc1ccc(Br)cc1Cl [Example 53, (E)-3-(1-(4-bromo-2-chlorobenzyl)-4-chloro-2-ethylimidazol-5-yl)-N-((E)-2-phenylethenesulfonyl)-2-propenamide] | 209 to 210 |
| Cc1nc(Cl)c(/C=C/C(=O)NS(=O)(=O)/C=C/c2ccccc2)n1Cc1ncc(C(F)(F)F)cc1Cl [Example 47, (E)-3-(4-chloro-1-((3-chloro-5-(trifluoromethyl)pyridin-2-yl)methyl)-2-methylimidazol-5-yl)-N-((E)-2-phenylethenylsulfonyl)-2-propenamide] | 249 to 252 |
| CCC/C=C/S(=O)(=O)NC(=O)/C=C/c1c(Cl)nc(CC)n1Cc1ccc(C#Cc2ccccc2)cc1Cl [Example 58, (E)-3-(4-chloro-1-(2-chloro-4-(phenylethynyl)benzyl)-2-ethylimidazol-5-yl)-N-((E)-1-penten-1-ylsulfonyl)-2-propenamide] | 173 to 175 |
| CCCCCOc1ccc(Cn2c(/C=C(\C)C(=O)NS(=O)(=O)/C=C/c3ccccc3)cnc2C)c(Cl)c1 [Example 70, (E)-3-(1-(2-chloro-4-(1-pentyloxy)benzyl)-2-methylimidazol-5-yl)-2-methyl-N-((E)-2-phenylethenesulfonyl)-2-propenamide] | 143 to 145 |
| CCCOc1ccc(Cn2c(C)nc(Cl)c2/C=C/C(=O)NS(=O)(=O)/C=C/c2ccccc2)c(Cl)c1 [Example 16, (E)-3-(4-chloro-1-(2-chloro-4-(1-propoxy)benzyl)-2-methylimidazol-5-yl)-N-(((E)-2-phenylethenyl)sulfonyl)-2-propenamide] | 199 to 201 |
| CCCCCS(=O)(=O)NC(=O)/C=C/c1c(Cl)nc(C)n1Cc1ccc(C#Cc2ccccc2)cc1Cl [Example 44, (E)-3-(4-chloro-1-(2-chloro-4-(phenylethynyl)benzyl)-2-methylimidazol-5-yl)-N-(1-pentanesulfonyl)-2-propenamide] | 207 to 209 |
| CCC/C=C/S(=O)(=O)NC(=O)/C=C/c1c(Cl)nc(CC)n1Cc1ccc(/C=C/c2ccccc2)cc1Cl [Example 63, (E)-3-(4-chloro-1-(2-chloro-4-((E)-2-phenylethenyl)benzyl)-2-ethylimidazol-5-yl)-N-((E)-1-penten-1-ylsulfonyl)-2-propenamide] | 197 to 200 |
| Cc1nc(Cl)c(/C=C/C(=O)NS(=O)(=O)/C=C/c2ccccc2)n1Cc1ccc(COc2ccccc2)cc1Cl [Example 31, (E)-3-(4-chloro-1-(2-chloro-4-(phenoxymethyl)benzyl)-2-methylimidazol-5-yl)-N-(((E)-2-phenylethenyl)sulfonyl)-2-propenamide] | 202 to 203 |
| Cc1nc(Cl)c(/C=C/C(=O)NS(=O)(=O)/C=C/c2ccccc2)n1Cc1ccc(OCC2CCCC2)cc1Cl [Example 21, (2E)-3-(4-chloro-1-(2-chloro-4-((cyclopentyl)methyloxy)benzyl)-2-methylimidazol-5-yl)-N-(((E)-2-phenylethenyl)sulfonyl)-2-propenamide] | 200 to 201 |
| Cc1nc(Cl)c(/C=C/C(=O)NS(=O)(=O)/C=C/c2ccccc2)n1Cc1ccc(OCc2ccccc2)cc1Cl [Example 25, (E)-3-(1-(4-benzyloxy-2-chlorobenzyl)-4-chloro-2-methylimidazol-5-yl)-N-(((E)-2-phenylethenyl)sulfonyl)-2-propenamide] | 225 to 227 |
| Cc1nc(Cl)c(/C=C/C(=O)NS(=O)(=O)c2ccc(Cl)s2)n1Cc1ccc(-c2ccccc2)cc1Cl [Example 13, (E)-3-(4-chloro-1-(2-chloro-4-phenylbenzyl)-2-methylimidazol-5-yl)-N-((5-chloro-2-thienyl)sulfonyl)-2-propenamide] | 229 to 233 |
| CCCCCOc1ccc(Cn2c(C)nc(Cl)c2COC(=O)NS(=O)(=O)c2ccc(C)cc2)c(Cl)c1 [Example 73, (4-chloro-1-(2-chloro-4-(1-pentyloxy)benzyl)-2-methyl-1H-imidazol-5-yl)methyl N-(4-methylbenzenesulfonyl)carbamate] | 109 to 111 |
| CCCCCS(=O)(=O)NC(=O)/C=C/c1c(Cl)nc(C)n1Cc1ccc(/C=C/c2ccccc2)cc1Cl [Example 41, (E)-3-(4-chloro-1-(2-chloro-4-((E)-2-phenylethenyl)benzyl)-2-methylimidazol-5-yl)-N-(1-pentanesulfonyl)-2-propenamide] | 215 to 216 |
| CCC/C=C/S(=O)(=O)NC(=O)/C=C/c1c(Cl)nc(C)n1Cc1ccc(C#Cc2ccccc2)cc1Cl [Example 45, (E)-3-(4-chloro-1-(2-chloro-4-(phenylethynyl)benzyl)-2-methylimidazol-5-yl)-N-((E)-1-penten-1-ylsulfonyl)-2-propenamide] | 207 to 210 |
| CCCCCS(=O)(=O)NC(=O)/C=C/c1c(Cl)nc(CC)n1Cc1ccc(/C=C/c2ccccc2)cc1Cl [Example 62, (E)-3-(4-chloro-1-(2-chloro-4-((E)-2-phenylethenyl)benzyl)-2-ethylimidazol-5-yl)-N-(1-pentanesulfonyl)-2-propenamide] | 197 to 200 |
| CCCCCOc1ccc(Cn2c(C)nc(Cl)c2/C=C/C(=O)NS(=O)(=O)/C=C/c2ccccc2)c(Cl)c1 [Example 18, (E)-3-(4-chloro-1-(2-chloro-4-(1-pentyloxy)benzyl)-2-methylimidazol-5-yl)-N-(((E)-2-phenylethenyl)sulfonyl)-2-propenamide] | 196 to 199 |
| Cc1nc(Cl)c(/C=C/C(=O)NS(=O)(=O)/C=C/c2ccccc2)n1Cc1ccc(Br)cc1Cl [Example 8, (E)-3-(1-(4-bromo-2-chlorobenzyl)-4-chloro-2-methylimidazol-5-yl)-N-(((E)-2-phenylethenyl)sulfonyl)-2-propenamide] | 250 to 251 |
| CCC/C=C/S(=O)(=O)NC(=O)/C=C/c1c(Cl)nc(C)n1Cc1ccc(NC(=O)OC(C)(C)C)cc1Cl [Example 50, (E)-3-(1-(4-(tert-butoxycarbonylamino)-2-chlorobenzyl)-4-chloro-2-methylimidazol-5-yl)-N-((E)-1-penten-1-ylsulfonyl)-2-propenamide] | 209 to 210 |
| CCCCCS(=O)(=O)NC(=O)/C=C/c1c(Cl)nc(C)n1Cc1ccc(OCC2CCCC2)cc1Cl [Example 19, (E)-3-(4-chloro-1-(2-chloro-4-((cyclopentyl)methyloxy)benzyl)-2-methylimidazol-5-yl)-N-(1-pentanesulfonyl)-2-propenamide] | 177 to 178 |

From US7060721B1, “Imidazole compounds and medicinal use thereof” (Fujisawa Pharmaceutical Co., Ltd., priority 1998, dated 2006)
